Each structure is given as a SMILES string.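 Compound exposure: 48 hours, 5 concentrations, 96-well plates. Definition used: TGI = concentration required for complete inhibition of growth.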

The subject of the first assay is SNB-75 CNS. In words: DTP human tumour cell line panel, 48 h.
For `O=c1[nH]c2cc([N+](=O)[O-])ccc2nc1/C(=N/Nc1ccccc1)C(O)c1ccccc1Cl` (configuration not stated), the concentration for total growth inhibition (TGI) – broadly, the concentration giving total growth inhibition – was greater than 100 µM.

As to `C=Cc1ccc(C)[n+](C[Si](C)(C)O[Si](C)(C)C)c1`, the total growth inhibition concentration (TGI) was greater than 100 µM.

`C[C@]12CCC(=O)C=C1CC[C@@H]1[C@@H]2CC[C@]2(C)C(=O)NC(=O)C[C@@H]12` displayed a TGI greater than 100 µM.

For the compound `COc1cc2c(oc(=O)c3c4oc([Si](C)(C)C)cc4cc(OC)c23)c2cccc(OCc3ccccc3)c12`, the TGI was 48 µM.

`O=C(c1cccs1)N(C(=S)N1CCN(c2ccccn2)CC1)c1ccccc1` registered a concentration for total growth inhibition (TGI) greater than 100 µM.

As to `CNS(=O)(=O)NN(C)S(=O)(=O)c1ccccc1`, the concentration for total growth inhibition (TGI) is greater than 100 µM.

The compound `O=[N+]([O-])/C(C(Cl)=C(Cl)Cl)=C(\N1CCOCC1)n1nnc2ccccc21` gave a TGI of 42.4 µM.

`CC(=O)OCC1=C(CCC#N)N2C(=O)C(NC(=O)Cc3cccs3)C2S(=O)C1` (configuration not stated) displayed a TGI greater than 100 µM.

With `O=c1c2c(oc3ccccc13)-c1ccccc1OC2`, the TGI stood at 50.7 µM.

On to `CCSc1[nH]c(NC(=S)NC(=O)c2ccccc2Cl)c(C(N)=O)c1C(N)=O`, for which the TGI was greater than 10 µM.

Compound `CCCCNc1nc(C#N)c(N)s1` showed a total growth inhibition concentration (TGI) greater than 100 µM.

In the case of `Cn1cc2ccccc2c1-c1nc(F)nc(F)n1`, the TGI is greater than 100 µM.

`COC(=O)N/N=C(\Cc1ccccc1)CN(C)C`: the total growth inhibition concentration (TGI) is greater than 100 µM.

The compound `CC1=NN(C(=O)c2ccccc2O)C(=O)/C1=C/c1ccco1` showed a TGI of 69.4 µM.

As for `COc1ccc2c3c1O[C@]1(C)C34CCN(C)C(C2)C42C=C[C@@]1(OC)c1c(O)ccc(O)c12`, the TGI was greater than 100 µM.

For the compound `C[N+](C)(C)CC(=O)N/N=C/c1oc(-c2c(O)ccc3ccccc23)c(-c2c(O)ccc3ccccc23)c1[N+](=O)[O-]`, the TGI turned out to be 61.1 µM.

For the compound `COC(=O)C1(CCC(C)=O)CCCCCC1=O` (configuration not stated), the TGI is greater than 100 µM.

In turn, `CCc1n[nH]c(=O)n1/N=C/c1c(O)ccc2ccccc12` returned a TGI greater than 100 µM.

`O=C(CSc1nnc(-c2ccc(N=Cc3ccc(Cl)cc3)cc2)o1)Nc1ccccc1[N+](=O)[O-]` had a concentration for total growth inhibition (TGI) greater than 100 µM.

Another assay relates to OVCAR-5 ovarian. In words: DTP human tumour cell line panel, 48 h.
Turning to `O=c1[nH]c2cc([N+](=O)[O-])ccc2nc1/C(=N/Nc1ccccc1)C(O)c1ccccc1Cl` (configuration not stated), the TGI is greater than 100 µM.

The compound `C=Cc1ccc(C)[n+](C[Si](C)(C)O[Si](C)(C)C)c1` yielded a TGI greater than 100 µM.

On to `C[C@]12CCC(=O)C=C1CC[C@@H]1[C@@H]2CC[C@]2(C)C(=O)NC(=O)C[C@@H]12`, for which the TGI is greater than 100 µM.

Turning to `COc1cc2c(oc(=O)c3c4oc([Si](C)(C)C)cc4cc(OC)c23)c2cccc(OCc3ccccc3)c12`, the concentration for total growth inhibition (TGI) is greater than 100 µM.

Turning to `CN(C)Nc1cc(=O)[nH]c(=O)[nH]1`, the total growth inhibition concentration (TGI) is greater than 100 µM.

`O=C(c1cccs1)N(C(=S)N1CCN(c2ccccn2)CC1)c1ccccc1` had a concentration for total growth inhibition (TGI) greater than 100 µM.

Take `O=[N+]([O-])/C(C(Cl)=C(Cl)Cl)=C(\N1CCOCC1)n1nnc2ccccc21`: the TGI was found to be 44 µM.

For `CC(=O)OCC1=C(CCC#N)N2C(=O)C(NC(=O)Cc3cccs3)C2S(=O)C1` (configuration not stated), the concentration for total growth inhibition (TGI) is greater than 100 µM.

For the compound `O=c1c2c(oc3ccccc13)-c1ccccc1OC2`, the TGI is greater than 100 µM.

Take `CCCCNc1nc(C#N)c(N)s1`: the concentration for total growth inhibition (TGI) is greater than 100 µM.

With `Cn1cc2ccccc2c1-c1nc(F)nc(F)n1`, the TGI is greater than 100 µM.

Turning to `COC(=O)N/N=C(\Cc1ccccc1)CN(C)C`, the concentration for total growth inhibition (TGI) was greater than 100 µM.

`CC1=NN(C(=O)c2ccccc2O)C(=O)/C1=C/c1ccco1` returned a concentration for total growth inhibition (TGI) greater than 100 µM.

The compound `COc1ccc2c3c1O[C@]1(C)C34CCN(C)C(C2)C42C=C[C@@]1(OC)c1c(O)ccc(O)c12` showed a TGI greater than 100 µM.

For the compound `C[N+](C)(C)CC(=O)N/N=C/c1oc(-c2c(O)ccc3ccccc23)c(-c2c(O)ccc3ccccc23)c1[N+](=O)[O-]`, the TGI was 60.1 µM.

Compound `COC(=O)C1(CCC(C)=O)CCCCCC1=O` (configuration not stated) showed a TGI greater than 100 µM.

In turn, `CCc1n[nH]c(=O)n1/N=C/c1c(O)ccc2ccccc12` yielded a TGI greater than 100 µM.

In turn, `CC(=O)OC1COC(n2c(O)c(N=NC(N)=S)c3cc(Br)ccc32)C(OC(C)=O)C1OC(C)=O` (configuration not stated) displayed a TGI greater than 100 µM.

A further assay relates to SF-268 CNS. In words: DTP human tumour cell line panel, 48 h.
In turn, `O=c1[nH]c2cc([N+](=O)[O-])ccc2nc1/C(=N/Nc1ccccc1)C(O)c1ccccc1Cl` (configuration not stated) showed a concentration for total growth inhibition (TGI) greater than 100 µM.

As to `C=Cc1ccc(C)[n+](C[Si](C)(C)O[Si](C)(C)C)c1`, the TGI was greater than 100 µM.

As to `C[C@]12CCC(=O)C=C1CC[C@@H]1[C@@H]2CC[C@]2(C)C(=O)NC(=O)C[C@@H]12`, the TGI was greater than 100 µM.

In turn, `COc1cc2c(oc(=O)c3c4oc([Si](C)(C)C)cc4cc(OC)c23)c2cccc(OCc3ccccc3)c12` gave a concentration for total growth inhibition (TGI) greater than 70.7 µM.

The compound `CN(C)Nc1cc(=O)[nH]c(=O)[nH]1` returned a TGI greater than 100 µM.

As for `O=C(c1cccs1)N(C(=S)N1CCN(c2ccccn2)CC1)c1ccccc1`, the TGI is greater than 100 µM.

Take `CNS(=O)(=O)NN(C)S(=O)(=O)c1ccccc1`: the TGI is greater than 100 µM.

Compound `O=[N+]([O-])/C(C(Cl)=C(Cl)Cl)=C(\N1CCOCC1)n1nnc2ccccc21` returned a TGI of 40 µM.

Compound `CC(=O)OCC1=C(CCC#N)N2C(=O)C(NC(=O)Cc3cccs3)C2S(=O)C1` (configuration not stated) came in with a concentration for total growth inhibition (TGI) greater than 100 µM.

Regarding `O=c1c2c(oc3ccccc13)-c1ccccc1OC2`, the concentration for total growth inhibition (TGI) is greater than 100 µM.

On to `CCSc1[nH]c(NC(=S)NC(=O)c2ccccc2Cl)c(C(N)=O)c1C(N)=O`, for which the TGI was greater than 10 µM.

`CCCCNc1nc(C#N)c(N)s1`: the TGI is greater than 100 µM.

With `Cn1cc2ccccc2c1-c1nc(F)nc(F)n1`, the TGI is greater than 100 µM.

Compound `COC(=O)N/N=C(\Cc1ccccc1)CN(C)C` came in with a TGI greater than 100 µM.

Consider `CC1=NN(C(=O)c2ccccc2O)C(=O)/C1=C/c1ccco1`, for which the TGI was greater than 100 µM.

In turn, `COc1ccc2c3c1O[C@]1(C)C34CCN(C)C(C2)C42C=C[C@@]1(OC)c1c(O)ccc(O)c12` came in with a concentration for total growth inhibition (TGI) greater than 100 µM.

Take `C[N+](C)(C)CC(=O)N/N=C/c1oc(-c2c(O)ccc3ccccc23)c(-c2c(O)ccc3ccccc23)c1[N+](=O)[O-]`: the TGI was found to be 47.3 µM.

`COC(=O)C1(CCC(C)=O)CCCCCC1=O` (configuration not stated) registered a TGI greater than 100 µM.

The compound `CCc1n[nH]c(=O)n1/N=C/c1c(O)ccc2ccccc12` displayed a TGI greater than 100 µM.

`CC(=O)OC1COC(n2c(O)c(N=NC(N)=S)c3cc(Br)ccc32)C(OC(C)=O)C1OC(C)=O` (configuration not stated) gave a TGI greater than 100 µM.

For `O=C(CSc1nnc(-c2ccc(N=Cc3ccc(Cl)cc3)cc2)o1)Nc1ccccc1[N+](=O)[O-]`, the total growth inhibition concentration (TGI) is greater than 100 µM.

The test system of another assay is RPMI-8226 leukemia. In words: DTP human tumour cell line panel, 48 h.
Consider `O=c1[nH]c2cc([N+](=O)[O-])ccc2nc1/C(=N/Nc1ccccc1)C(O)c1ccccc1Cl` (configuration not stated), for which the concentration for total growth inhibition (TGI) was greater than 100 µM.

On to `C=Cc1ccc(C)[n+](C[Si](C)(C)O[Si](C)(C)C)c1`, for which the total growth inhibition concentration (TGI) was greater than 100 µM.

For the compound `C[C@]12CCC(=O)C=C1CC[C@@H]1[C@@H]2CC[C@]2(C)C(=O)NC(=O)C[C@@H]12`, the concentration for total growth inhibition (TGI) is greater than 100 µM.

`COc1cc2c(oc(=O)c3c4oc([Si](C)(C)C)cc4cc(OC)c23)c2cccc(OCc3ccccc3)c12` showed a TGI greater than 87 µM.

As for `CN(C)Nc1cc(=O)[nH]c(=O)[nH]1`, the concentration for total growth inhibition (TGI) is greater than 100 µM.

For `O=C(c1cccs1)N(C(=S)N1CCN(c2ccccn2)CC1)c1ccccc1`, the TGI was greater than 100 µM.

As for `CNS(=O)(=O)NN(C)S(=O)(=O)c1ccccc1`, the TGI is greater than 100 µM.

With `O=[N+]([O-])/C(C(Cl)=C(Cl)Cl)=C(\N1CCOCC1)n1nnc2ccccc21`, the TGI is greater than 100 µM.

The compound `CC(=O)OCC1=C(CCC#N)N2C(=O)C(NC(=O)Cc3cccs3)C2S(=O)C1` (configuration not stated) registered a total growth inhibition concentration (TGI) greater than 100 µM.
